What is called IC50 is the concentration at which inhibition is half-maximal.

For the test, the target named is T1, human SCD1 (Homo sapiens, UniProt O00767).
T1 construct: made in house; host or cells: baculovirus/Sf9 insect cells
T1 sequence (O00767 1-359): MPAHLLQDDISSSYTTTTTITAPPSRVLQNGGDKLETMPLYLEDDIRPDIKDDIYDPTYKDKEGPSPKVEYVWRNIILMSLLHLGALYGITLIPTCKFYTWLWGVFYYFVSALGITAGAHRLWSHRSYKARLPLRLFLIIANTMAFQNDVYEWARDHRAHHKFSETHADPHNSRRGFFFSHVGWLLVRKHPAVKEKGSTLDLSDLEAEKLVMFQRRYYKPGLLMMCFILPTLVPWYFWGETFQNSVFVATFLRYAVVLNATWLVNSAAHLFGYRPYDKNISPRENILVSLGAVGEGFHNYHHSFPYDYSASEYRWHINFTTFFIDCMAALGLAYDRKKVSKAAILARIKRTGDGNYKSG
The test can be described thus: SCD enzyme activity assay, reconstituted human SCD1 ([3H]-stearoyl-CoA conversion). The test is classed as biochemical. Conditions: read-out: IC50 hSCD-1. The procedure: The potency of compounds of formula I against the stearoyl-CoA desaturase was determined by measuring the conversion of radiolabeled stearoyl-CoA to oleoyl-CoA using rat liver microsome or human SCD1 following previously published procedures with some modifications (Joshi, et al., J. Lipid Res., 18: 32-36 (1977); Talamo, et al., Anal. Biochem, 29: 300-304 (1969)). Liver microsome was prepared from male Wistar or Sprague Dawley rats on a high carbohydrate diet for 3 days (LabDiet #5803, Purina). The livers were homogenized (1:10 w/v) in a buffer containing 250 mM sucrose, 1 mM EDTA, 5 mM DTT and 50 mM Tris-HCl (pH 7.5). After a 100,000×g centrifugation for 60 min, the liver microsome pellet was suspended in a buffer containing 100 mM sodium phosphate, 20% glycerol, 2 mM DTT, and stored at −78° C. Human SCD1 desaturase system was reconstituted using human SCD1 from a baculovirus/Sf9 expression system, cytochrome B5 and cytochrome B5 reductase. Typically, test compound in 2 μL DMSO was incubated for 15 min at room temperature with 180 μL of the SCD enzyme in a buffer containing 100 mM Tris-HCl (pH 7.5), ATP (5 mM), Coenzyme-A (0.1 mM), Triton X-100 (0.5 mM) and NADH (2 mM). The reaction was initiated by the addition of 20 μL of [^3H]-stearoyl-CoA (final concentration=2 μM, radioactivity concentration=1 μCi/mL). After 10 min, the reaction mixture (80 μL) was mixed with a calcium chloride/charcoal aqueous suspension (100 μL charcoal (10% w/v) plus 25 μL CaCl2 (2N). After centrifugation to precipitate the radioactive fatty acid species, tritiated water released from 9,10-[^3H]-stearoyl-CoA by the SCD enzyme was quantified on a scintillation counter.

For the compound `O=C(O)CNc1nc2cnc(-c3cn(Cc4cc(Cl)c(Cl)c(Cl)c4)nn3)nc2s1`, the IC50 was 31 nM.
Turning to `OCc1ccn2cc(-c3cn(Cc4cc(Cl)c(Cl)c(Cl)c4)nn3)nc2c1`, the half-inhibitory concentration (IC50) came out at 39 nM.
As for `O=C(O)c1ccc2nc(-c3cn(Cc4cc(Br)c(Br)c(Br)c4)nn3)sc2c1`, the IC50 was found to be 14 nM.
Then `Oc1cnc2nc(-c3cn(Cc4cc(Cl)c(Cl)c(Cl)c4)nn3)sc2n1`, with 48 nM.
In the case of `CCOC(=O)Nc1nc2ncc(-c3cn(Cc4cc(Br)c(Br)c(Br)c4)nn3)nc2s1`, the IC50 is 16 nM.

The record behind these values is patent US20110166152A1, “HETEROAROMATIC COMPOUNDS AS INHIBITORS OF STEAROYL-COENZYME A DELTA-9 DESATURASE” (priority 2008, published 2011).
